In patent US8372844B2, “Piperazinyl-propyl-pyrazole derivatives as dopamine D4 receptor antagonists, and pharmaceutical compositions containing the same” (Korea Research Institute of Chemical Technology, priority 2007, dated 2013):

Tests used:
5-HT2A receptor = 5-HT2A receptor (Homo sapiens, UniProt P28223); experiment: Serotonin receptor binding experiment, 5-HT2A; design: species or system human or rat; settings: [3H]ketanserin 1 nM, 15 min at 37° C.; read-out: Receptor affinity (IC50, nM) 5-HT2A
Sequence of 5-HT2A receptor (P28223 whole entry): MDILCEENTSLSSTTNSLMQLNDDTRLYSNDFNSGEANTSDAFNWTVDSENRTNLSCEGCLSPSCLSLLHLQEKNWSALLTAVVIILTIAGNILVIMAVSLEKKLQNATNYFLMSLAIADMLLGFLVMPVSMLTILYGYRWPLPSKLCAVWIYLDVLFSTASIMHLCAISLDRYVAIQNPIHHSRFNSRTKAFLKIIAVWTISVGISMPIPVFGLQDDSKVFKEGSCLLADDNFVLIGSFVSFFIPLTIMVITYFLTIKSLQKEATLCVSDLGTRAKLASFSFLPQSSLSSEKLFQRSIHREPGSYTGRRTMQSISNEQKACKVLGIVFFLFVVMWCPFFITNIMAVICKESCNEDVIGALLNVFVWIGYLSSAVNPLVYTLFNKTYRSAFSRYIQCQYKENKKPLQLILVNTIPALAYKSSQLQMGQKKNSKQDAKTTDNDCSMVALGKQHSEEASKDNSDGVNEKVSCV
Procedure: (§1) The measurement of affinity for serotonin 5-HT receptor family was performed according to the experimental conditions as specified in Table 2 below using the method same as in Experimental Example 1 above.

Rotarod deficit in mice [1] = type: in vivo; settings: mouse, in vivo, ip, mice, rod rotating at 6 rpm, 30-120 min after administration
Procedure: (§2) Each mouse was administered with a test drug, and then placed on a 1 inch diameter knurled plastic rod rotating at 6 rpm (Ugo-Basile, Milano, Italy), and the rotarod deficit (%) was obtained by counting the number of mice fallen from the rotating rod within 1 min at 30, 60, 90, and 120 min after the administration of the drug.

rotarod deficit in mice [2] = experiment: Rotarod deficit in mice; type: in vivo; settings: for Rotarod deficit TD50 (mg/kg, ip): mice, rod rotating at 6 rpm, 30-120 min after administration; for rotarod deficit TD50 as times of ED50 for antipsychotic efficacy: mouse, in vivo, ip
Procedure: as §2

5-HT7 receptor = 5-HT7 receptor (Homo sapiens, UniProt P34969); experiment: Serotonin receptor binding experiment, 5-HT7; design: species or system human or rat; settings: [3H]LSD 3 nM, 90 min at 27° C.; read-out: Receptor affinity (IC50, nM) 5-HT7
Sequence of 5-HT7 receptor (P34969 whole entry): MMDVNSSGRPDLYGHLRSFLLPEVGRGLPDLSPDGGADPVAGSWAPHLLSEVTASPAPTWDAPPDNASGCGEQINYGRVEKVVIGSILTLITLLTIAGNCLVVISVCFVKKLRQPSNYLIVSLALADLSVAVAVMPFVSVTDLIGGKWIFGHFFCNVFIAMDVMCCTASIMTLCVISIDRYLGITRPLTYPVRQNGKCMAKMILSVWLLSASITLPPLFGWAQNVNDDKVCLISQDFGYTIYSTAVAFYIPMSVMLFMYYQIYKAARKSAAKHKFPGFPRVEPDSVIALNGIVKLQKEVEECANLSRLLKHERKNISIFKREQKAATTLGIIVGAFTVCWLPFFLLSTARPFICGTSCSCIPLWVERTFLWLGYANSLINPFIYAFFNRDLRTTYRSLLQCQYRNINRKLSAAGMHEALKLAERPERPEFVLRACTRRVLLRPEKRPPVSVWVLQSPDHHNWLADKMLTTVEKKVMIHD
Procedure: as §1

5-HT6 receptor = 5-HT6 receptor (Homo sapiens, UniProt P50406); experiment: Serotonin receptor binding experiment, 5-HT6; design: species or system human or rat; settings: [3H]LSD 1.8 nM, 60 min at 37° C.; read-out: Receptor affinity (IC50, nM) 5-HT6
Sequence of 5-HT6 receptor (P50406 whole entry): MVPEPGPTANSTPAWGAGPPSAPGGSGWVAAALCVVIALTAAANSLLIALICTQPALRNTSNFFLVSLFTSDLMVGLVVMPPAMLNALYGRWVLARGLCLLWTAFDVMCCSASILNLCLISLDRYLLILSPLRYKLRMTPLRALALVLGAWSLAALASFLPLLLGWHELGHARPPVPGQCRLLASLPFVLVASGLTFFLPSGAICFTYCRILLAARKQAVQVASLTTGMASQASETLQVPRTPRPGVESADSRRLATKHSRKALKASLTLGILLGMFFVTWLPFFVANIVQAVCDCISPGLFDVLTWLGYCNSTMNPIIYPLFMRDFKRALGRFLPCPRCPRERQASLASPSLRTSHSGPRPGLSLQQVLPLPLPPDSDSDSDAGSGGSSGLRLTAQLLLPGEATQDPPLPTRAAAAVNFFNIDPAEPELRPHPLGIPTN
Procedure: as §1

[3] = target: T1, human recombinant dopamine D4.2 receptor (Homo sapiens, UniProt P21917, DEL265-296); experiment: Measurement of affinity for dopamine D4 receptor ([3H]YM-09151-2 binding); settings: [3H]YM-09151-2 0.1 nM, receptor expressed in CHO-K1 cells, 120 min at 25° C.
T1 construct: purchased PerkinElmer Life and Analytical Sciences, USA; host or cells: CHO-K1 cells
T1 sequence (P21917 with tags, fused parts or gaps DEL265-296): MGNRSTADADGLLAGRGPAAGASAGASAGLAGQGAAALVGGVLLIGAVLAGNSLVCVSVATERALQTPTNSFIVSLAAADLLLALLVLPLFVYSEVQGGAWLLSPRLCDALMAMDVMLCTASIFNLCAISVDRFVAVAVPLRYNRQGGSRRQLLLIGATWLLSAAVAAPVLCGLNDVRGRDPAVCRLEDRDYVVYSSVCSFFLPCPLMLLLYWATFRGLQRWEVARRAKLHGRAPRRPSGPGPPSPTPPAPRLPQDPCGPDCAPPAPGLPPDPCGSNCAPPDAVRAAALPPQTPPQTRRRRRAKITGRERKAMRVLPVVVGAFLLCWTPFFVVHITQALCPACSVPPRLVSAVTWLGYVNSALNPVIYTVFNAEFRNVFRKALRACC
Procedure: The affinities of the compounds for dopamine D4 receptor were measured by using human recombinant dopamine D4.2 receptor (PerkinElmer Life and Analytical Sciences, USA) expressed in CHO-K1 cells, and [^3H]YM-09151-2 (PerkinElmer) was used as a radioactive ligand.
50 mM Tris-HCl (pH 7.4) containing 120 mM NaCl, 5 mM KCl, 5 mM MgCl2 and 1 mM EDTA was used as a buffer solution for the analysis of receptor binding. [^3H] YM-09151-2 binding reactions were performed in a 96-well plate format.
For drug screening, a reaction mixture with a final volume of 0.25 mL was prepared by mixing a compound of the present invention, D4 receptor membrane (43 μg/well), [^3H] YM-09151-2 (0.1 nM), 50 mM Tris-HCl (pH 7.4) and the like. The reaction mixture was incubated for 120 min at 25° C., and then promptly passed through Wallac GF/C glass fiber filter (Wallac, Finland), which was already wetted in 0.5% PEI, by using Inotech harvester (Inotech) to terminate the reaction, and then washed with cold 50 mM Tris-HCl buffer solution. The filter was then covered with MeltiLex, sealed in a sample bag, and then dried in an oven. The radioactivity retained in the filter was finally counted using MicroBeta Plus, Wallac.
The affinity (IC50) of a compound for the receptor was calculated via nonlinear regression analysis of sigmoidal dose-response equation with the data obtained from three independent experiments (GraphPad Prism Program, San Diego, USA), which are carried out using 7-8 different concentrations of the compound in duplicate. Nonspecific binding was measured in the presence of 10 μM clozapine.

[4] = target: T2, Human recombinant dopamine D3 receptor (Homo sapiens, UniProt P35462); experiment: Measurement of affinity for dopamine D3 receptor ([3H]spiperone binding); settings: [3H]spiperone 0.8 nM, CHO cell line, 60 min at 27° C.
T2 construct: purchased Euroscreen; host or cells: CHO cell line
T2 sequence (P35462 whole entry): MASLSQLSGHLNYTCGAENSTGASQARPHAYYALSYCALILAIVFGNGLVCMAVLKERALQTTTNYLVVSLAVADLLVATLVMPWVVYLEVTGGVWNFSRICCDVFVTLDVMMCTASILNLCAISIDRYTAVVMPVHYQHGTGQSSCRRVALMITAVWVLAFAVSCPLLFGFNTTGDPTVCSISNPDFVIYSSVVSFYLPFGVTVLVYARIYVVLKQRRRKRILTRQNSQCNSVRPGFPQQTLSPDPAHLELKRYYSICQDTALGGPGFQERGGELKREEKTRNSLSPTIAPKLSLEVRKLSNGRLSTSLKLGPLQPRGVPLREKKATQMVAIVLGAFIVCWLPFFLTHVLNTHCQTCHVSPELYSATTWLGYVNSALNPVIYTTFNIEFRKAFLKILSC
Procedure: (§3) Human recombinant dopamine D2 and D3 receptors, which were expressed in CHO cell lines, respectively, were purchased from PerkinElmer and Euroscreen, respectively.
(§4) 50 mM Tris-HCl (pH 7.4) containing […] and 1 mM EDTA was used as a buffer solution for the measurement of affinity for dopamine D2 receptor. 50 mM Tris-HCl (pH 7.4) containing 5 mM MgCl2, 5 mM EDTA, 5 mM KCl, 1.5 mM CaCl2 and 120 mM NaCl was used as a buffer solution for the measurement of affinity for dopamine D3 receptor. For measurement of non-specific binding, 10 μM haloperidol (haloperidol) was used.

[5] = target: T3, Human recombinant dopamine D2 receptor (Homo sapiens, UniProt P14416); experiment: Measurement of affinity for dopamine D2 receptor ([3H]spiperone binding); settings: for IC50: [3H]spiperone 0.5 nM, CHO cell line, 60 min at 27° C.
T3 construct: purchased PerkinElmer; host or cells: CHO cell line
T3 sequence (P14416 whole entry): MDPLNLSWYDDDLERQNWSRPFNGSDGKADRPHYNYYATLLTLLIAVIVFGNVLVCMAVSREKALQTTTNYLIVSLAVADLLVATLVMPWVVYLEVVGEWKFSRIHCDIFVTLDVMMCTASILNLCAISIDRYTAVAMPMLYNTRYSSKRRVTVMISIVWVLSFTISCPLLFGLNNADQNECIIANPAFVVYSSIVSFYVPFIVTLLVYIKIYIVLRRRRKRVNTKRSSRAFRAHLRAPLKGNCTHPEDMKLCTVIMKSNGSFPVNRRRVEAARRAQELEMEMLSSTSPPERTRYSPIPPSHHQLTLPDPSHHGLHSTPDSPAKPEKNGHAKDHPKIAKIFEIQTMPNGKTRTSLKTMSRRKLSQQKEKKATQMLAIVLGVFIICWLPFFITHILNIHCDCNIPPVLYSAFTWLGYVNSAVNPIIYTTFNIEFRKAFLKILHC
Procedure: as §3, §4

[6] = system: apomorphine-induced cage climbing in mice; experiment: Apomorphine-induced climbing behavior in mice; type: in vivo; settings: ip 30 min prior to apomorphine (1 mg/kg, sc); for ED50: Mus musculus, read-out: Inhibitory effects on apomorphine-induced climbing behavior ED50 (mg/kg, ip)
Procedure: When mice were treated with apomorphine (1 mg/kg, sc), a potent dopamine receptor agonist, and were put into cylindrical cages (diameter, 12 cm/height, 14 cm) with the floor and wall consisting of metal bars and covered with a lid, they begin to perform repeatedly a psychotic behavior of ‘cage climbing’. Their climbing behaviors were monitored every 10 min for 30 min and scored by 4-point rating scale (0˜3 points) depending on the extent of the behavior (Costentin, J. et al., Nature 1975, 257, 405-7; Protais, P. et al., Psychopharmacology 1976, 50, 1-6).
The compounds were injected intraperitoneally into mice 30 min prior to apomorphine administration. The inhibitory effects of the compounds against control group were measured and each ED50 was calculated therefrom.

SMILES	IC50 (5-HT2A receptor)	TD50 (Rotarod deficit in mice [1])	Rotarod deficit TD50 (mg/kg, ip) (rotarod deficit in mice [2])	rotarod deficit TD50 as times of ED50 for antipsychotic efficacy (rotarod deficit in mice [2])	IC50 (5-HT7 receptor)	IC50 (5-HT6 receptor)	IC50 [3]	IC50 [4]	affinity for D2 receptors (in words) [5]	IC50 [5]	ED50 [6]	Inhibitory effects on apomorphine-induced climbing behavior ED50 (mg/kg, ip) [6]
CC(C)c1cc(CCCN2CCN(c3ccccc3F)CC2)n(-c2ccccc2)n1 [Compound 177, 1-(2-fluorophenyl)-4-(3-(1-phenyl-3-isopropyl-1H-pyrazol-5-yl)propyl)piperazine]	27 nM	20 to 50 mg/kg	19.4 mg/kg	2.2-5 times	252 nM	9210 nM	8 nM	687 nM	extremely poor affinity	227 nM	8.8 to 14.5 mg/kg	8.8 mg/kg
CCCc1cc(CCCN2CCN(c3ccc(C)c(C)c3)CC2)n(-c2ccccc2)n1 [Compound 159, 1-(3,4-dimethylphenyl)-4-(3-(1-phenyl-3-propyl-1H-pyrazol-5-yl)propyl)piperazine]	8 nM	20 to 50 mg/kg	35.3 mg/kg	2.2-5 times	195 nM	2500 nM	1.3 nM	131 nM	extremely poor affinity	2050 nM	8.8 to 14.5 mg/kg	9.1 mg/kg
CCCc1cc(CCCN2CCN(c3ccccc3F)CC2)n(-c2ccccc2)n1 [Compound 156, 1-(2-fluorophenyl)-4-(3-(1-phenyl-3-propyl-1H-pyrazol-5-yl)propyl)piperazine]	152 nM	20 to 50 mg/kg	26.0 mg/kg	2.2-5 times	313 nM	> 10000 nM	3.5 nM	87 nM	extremely poor affinity	696 nM	8.8 to 14.5 mg/kg	9.6 mg/kg
CCCc1cc(CCCN2CCN(c3cccc(C)c3C)CC2)n(-c2ccccc2)n1 [Compound 160, 1-(2,3-dimethylphenyl)-4-(3-(1-phenyl-3-propyl-1H-pyrazol-5-yl)propyl)piperazine]	65 nM	20 to 50 mg/kg	24.6 mg/kg	2.2-5 times	84 nM	2010 nM	2.9 nM	229 nM	extremely poor affinity	3790 nM	8.8 to 14.5 mg/kg	10.6 mg/kg
CCCc1cc(CCCN2CCN(c3ccccc3)CC2)n(-c2ccccc2)n1 [Compound 155, 1-phenyl-4-(3-(1-phenyl-3-propyl-1H-pyrazol-5-yl)propyl)piperazine]	35 nM	20 to 50 mg/kg	28.5 mg/kg	2.2-5 times	259 nM	> 10000 nM	5.9 nM	461 nM	extremely poor affinity	5260 nM	8.8 to 14.5 mg/kg	10.7 mg/kg
